{
  "source": "ChEMBL document CHEMBL5696442",
  "about": "“Discovery of type II inhibitors of TGFβ-activated kinase 1 (TAK1) and mitogen-activated protein kinase kinase kinase kinase 2 (MAP4K2)” (J Med Chem, 2015)",
  "key": {"[1]": {"biological_target": "Tyrosine-protein kinase BTK (Homo sapiens) (UniProt Q06187)", "sequence (Q06187 whole entry)": "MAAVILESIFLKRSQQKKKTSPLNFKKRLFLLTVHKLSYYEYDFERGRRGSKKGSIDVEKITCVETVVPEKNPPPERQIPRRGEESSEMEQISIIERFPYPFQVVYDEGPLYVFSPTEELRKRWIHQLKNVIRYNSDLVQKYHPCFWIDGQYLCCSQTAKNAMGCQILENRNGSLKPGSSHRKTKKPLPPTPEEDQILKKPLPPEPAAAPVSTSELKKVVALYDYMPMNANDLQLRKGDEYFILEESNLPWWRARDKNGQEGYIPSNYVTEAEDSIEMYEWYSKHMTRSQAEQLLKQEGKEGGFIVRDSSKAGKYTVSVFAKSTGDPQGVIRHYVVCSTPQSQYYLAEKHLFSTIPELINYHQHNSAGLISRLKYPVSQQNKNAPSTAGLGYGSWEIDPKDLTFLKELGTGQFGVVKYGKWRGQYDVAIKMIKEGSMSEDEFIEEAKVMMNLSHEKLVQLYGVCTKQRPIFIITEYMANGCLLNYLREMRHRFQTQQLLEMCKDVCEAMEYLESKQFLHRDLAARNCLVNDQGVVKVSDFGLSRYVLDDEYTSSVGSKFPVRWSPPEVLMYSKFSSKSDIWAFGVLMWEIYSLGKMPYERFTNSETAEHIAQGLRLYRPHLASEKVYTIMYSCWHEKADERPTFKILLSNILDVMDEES", "experiment": "Inhibition of BTK (unknown origin) at 10 uM by Ambit Kinomescan binding assay"}, "[2]": {"biological_target": "Microtubule-associated serine/threonine-protein kinase 2 (Homo sapiens) (UniProt Q6P0Q8)", "sequence (Q6P0Q8 whole entry)": "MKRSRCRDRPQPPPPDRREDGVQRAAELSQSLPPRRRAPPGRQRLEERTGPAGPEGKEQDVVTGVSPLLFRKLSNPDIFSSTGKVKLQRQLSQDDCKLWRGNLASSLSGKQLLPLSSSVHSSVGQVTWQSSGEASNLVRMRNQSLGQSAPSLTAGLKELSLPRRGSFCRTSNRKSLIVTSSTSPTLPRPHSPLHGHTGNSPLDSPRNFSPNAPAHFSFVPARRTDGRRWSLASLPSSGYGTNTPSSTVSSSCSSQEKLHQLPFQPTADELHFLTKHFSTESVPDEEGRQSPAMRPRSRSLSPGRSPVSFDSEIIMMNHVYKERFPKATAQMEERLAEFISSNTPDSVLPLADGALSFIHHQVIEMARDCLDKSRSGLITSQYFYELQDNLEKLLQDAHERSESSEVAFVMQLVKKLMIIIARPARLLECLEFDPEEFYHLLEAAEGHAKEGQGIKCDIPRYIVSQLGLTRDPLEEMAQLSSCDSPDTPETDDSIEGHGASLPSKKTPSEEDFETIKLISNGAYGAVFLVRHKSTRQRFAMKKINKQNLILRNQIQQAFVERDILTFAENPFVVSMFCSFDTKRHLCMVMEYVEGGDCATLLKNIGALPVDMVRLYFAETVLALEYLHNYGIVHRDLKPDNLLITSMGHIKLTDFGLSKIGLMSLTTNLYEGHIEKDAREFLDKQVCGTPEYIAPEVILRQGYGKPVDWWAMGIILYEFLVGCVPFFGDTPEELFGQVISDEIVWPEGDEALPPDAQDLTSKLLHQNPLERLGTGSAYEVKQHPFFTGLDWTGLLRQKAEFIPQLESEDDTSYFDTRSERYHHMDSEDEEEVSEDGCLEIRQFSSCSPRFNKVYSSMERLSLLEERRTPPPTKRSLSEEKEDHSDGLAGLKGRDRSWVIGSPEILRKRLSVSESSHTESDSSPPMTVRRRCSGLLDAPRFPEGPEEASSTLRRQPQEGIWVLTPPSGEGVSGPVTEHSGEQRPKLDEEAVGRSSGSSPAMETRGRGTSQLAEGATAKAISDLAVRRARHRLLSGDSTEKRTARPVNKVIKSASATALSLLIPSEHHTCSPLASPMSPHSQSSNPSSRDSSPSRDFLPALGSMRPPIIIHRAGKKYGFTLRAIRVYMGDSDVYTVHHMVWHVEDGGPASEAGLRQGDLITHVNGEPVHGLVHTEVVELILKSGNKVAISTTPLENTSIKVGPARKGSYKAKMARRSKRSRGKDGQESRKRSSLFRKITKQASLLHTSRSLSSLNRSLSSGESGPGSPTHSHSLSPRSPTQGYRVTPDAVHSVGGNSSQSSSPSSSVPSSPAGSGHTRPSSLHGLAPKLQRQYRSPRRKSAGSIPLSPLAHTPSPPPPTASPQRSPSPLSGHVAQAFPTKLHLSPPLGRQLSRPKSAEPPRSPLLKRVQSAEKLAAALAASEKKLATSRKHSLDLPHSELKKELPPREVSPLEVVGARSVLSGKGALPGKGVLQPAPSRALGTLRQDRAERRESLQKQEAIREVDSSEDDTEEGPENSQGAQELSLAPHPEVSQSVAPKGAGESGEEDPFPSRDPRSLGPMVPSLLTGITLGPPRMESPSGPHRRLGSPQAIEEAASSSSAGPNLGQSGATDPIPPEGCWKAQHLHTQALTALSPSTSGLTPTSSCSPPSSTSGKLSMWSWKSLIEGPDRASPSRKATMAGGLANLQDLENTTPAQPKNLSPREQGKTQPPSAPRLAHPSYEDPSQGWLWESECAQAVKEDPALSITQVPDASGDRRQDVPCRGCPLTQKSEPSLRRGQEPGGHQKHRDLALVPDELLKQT", "experiment": "Inhibition of MAST2 Lys2 labeling site in human A-375 cells at 0.5 uM by KiNativ Profiling analysis relative to control", "assay_type": "cell-based"}, "[3]": {"biological_target": "T1, NUAK family SNF1-like kinase 1 (Homo sapiens) (UniProt O60285)", "T1 sequence (whole entry)": "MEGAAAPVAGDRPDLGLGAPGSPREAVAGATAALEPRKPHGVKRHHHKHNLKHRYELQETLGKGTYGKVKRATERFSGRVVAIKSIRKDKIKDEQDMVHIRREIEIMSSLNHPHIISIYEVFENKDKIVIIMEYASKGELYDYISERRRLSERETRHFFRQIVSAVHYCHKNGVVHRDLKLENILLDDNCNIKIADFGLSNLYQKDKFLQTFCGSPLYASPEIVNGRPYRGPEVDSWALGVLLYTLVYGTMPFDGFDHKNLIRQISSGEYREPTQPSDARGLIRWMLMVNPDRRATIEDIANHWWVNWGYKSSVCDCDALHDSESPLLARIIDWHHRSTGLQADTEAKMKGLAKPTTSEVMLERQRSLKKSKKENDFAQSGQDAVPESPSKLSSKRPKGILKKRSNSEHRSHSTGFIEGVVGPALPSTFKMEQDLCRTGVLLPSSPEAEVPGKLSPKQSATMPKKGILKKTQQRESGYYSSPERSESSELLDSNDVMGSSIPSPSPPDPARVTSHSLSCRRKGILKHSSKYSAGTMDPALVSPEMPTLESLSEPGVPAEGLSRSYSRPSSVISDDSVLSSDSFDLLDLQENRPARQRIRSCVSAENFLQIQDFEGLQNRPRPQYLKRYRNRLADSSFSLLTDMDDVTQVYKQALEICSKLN", "experiment": "Inhibition of NuaK1 K2 labeling site in human Huh-7 cells at 10 uM by KiNativ Profiling analysis relative to control", "assay_type": "cell-based"}, "[4]": {"biological_target": "ALK tyrosine kinase receptor (Homo sapiens) (UniProt Q9UM73)", "experiment": "Inhibition of ALK (unknown origin) at 10 uM by Ambit Kinomescan binding assay relative to control; values are per cent of control"}, "[5]": {"biological_target": "T2, Serine/threonine-protein kinase Nek9 (Homo sapiens) (UniProt Q8TD19)", "T2 sequence (whole entry)": "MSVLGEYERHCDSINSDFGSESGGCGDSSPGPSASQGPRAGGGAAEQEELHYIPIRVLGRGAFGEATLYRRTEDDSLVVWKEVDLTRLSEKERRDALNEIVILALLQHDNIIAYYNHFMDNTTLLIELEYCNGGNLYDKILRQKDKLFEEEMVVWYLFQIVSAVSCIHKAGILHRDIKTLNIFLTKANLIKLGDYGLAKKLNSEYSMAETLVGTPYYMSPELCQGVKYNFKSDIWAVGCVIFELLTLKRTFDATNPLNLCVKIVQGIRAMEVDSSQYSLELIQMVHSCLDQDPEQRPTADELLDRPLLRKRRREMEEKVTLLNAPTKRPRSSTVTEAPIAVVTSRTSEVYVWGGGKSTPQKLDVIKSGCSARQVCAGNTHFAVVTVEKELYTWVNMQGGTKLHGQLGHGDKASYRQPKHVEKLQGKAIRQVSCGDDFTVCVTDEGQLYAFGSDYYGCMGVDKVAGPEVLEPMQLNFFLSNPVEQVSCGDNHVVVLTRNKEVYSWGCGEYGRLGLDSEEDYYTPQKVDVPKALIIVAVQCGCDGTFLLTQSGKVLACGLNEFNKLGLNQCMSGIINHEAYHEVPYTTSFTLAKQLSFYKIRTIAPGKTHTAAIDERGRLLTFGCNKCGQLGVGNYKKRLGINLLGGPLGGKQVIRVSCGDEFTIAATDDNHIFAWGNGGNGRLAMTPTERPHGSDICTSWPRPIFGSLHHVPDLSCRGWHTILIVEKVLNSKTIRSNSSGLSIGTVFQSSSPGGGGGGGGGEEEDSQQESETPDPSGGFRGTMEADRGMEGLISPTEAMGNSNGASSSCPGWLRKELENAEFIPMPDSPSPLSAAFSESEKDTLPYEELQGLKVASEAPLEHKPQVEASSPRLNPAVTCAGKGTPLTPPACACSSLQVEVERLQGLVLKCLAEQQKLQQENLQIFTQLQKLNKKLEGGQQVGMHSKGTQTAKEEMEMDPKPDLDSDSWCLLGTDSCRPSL", "experiment": "Inhibition of NEK9 Lys2 labeling site in human Huh-7 cell lysate at 1 uM by KiNativ Profiling analysis relative to control", "assay_type": "subcellular"}, "[6]": {"biological_target": "eIF-2-alpha kinase GCN2 (Homo sapiens) (UniProt Q9P2K8)", "sequence (Q9P2K8 whole entry, the tested form may be a part)": "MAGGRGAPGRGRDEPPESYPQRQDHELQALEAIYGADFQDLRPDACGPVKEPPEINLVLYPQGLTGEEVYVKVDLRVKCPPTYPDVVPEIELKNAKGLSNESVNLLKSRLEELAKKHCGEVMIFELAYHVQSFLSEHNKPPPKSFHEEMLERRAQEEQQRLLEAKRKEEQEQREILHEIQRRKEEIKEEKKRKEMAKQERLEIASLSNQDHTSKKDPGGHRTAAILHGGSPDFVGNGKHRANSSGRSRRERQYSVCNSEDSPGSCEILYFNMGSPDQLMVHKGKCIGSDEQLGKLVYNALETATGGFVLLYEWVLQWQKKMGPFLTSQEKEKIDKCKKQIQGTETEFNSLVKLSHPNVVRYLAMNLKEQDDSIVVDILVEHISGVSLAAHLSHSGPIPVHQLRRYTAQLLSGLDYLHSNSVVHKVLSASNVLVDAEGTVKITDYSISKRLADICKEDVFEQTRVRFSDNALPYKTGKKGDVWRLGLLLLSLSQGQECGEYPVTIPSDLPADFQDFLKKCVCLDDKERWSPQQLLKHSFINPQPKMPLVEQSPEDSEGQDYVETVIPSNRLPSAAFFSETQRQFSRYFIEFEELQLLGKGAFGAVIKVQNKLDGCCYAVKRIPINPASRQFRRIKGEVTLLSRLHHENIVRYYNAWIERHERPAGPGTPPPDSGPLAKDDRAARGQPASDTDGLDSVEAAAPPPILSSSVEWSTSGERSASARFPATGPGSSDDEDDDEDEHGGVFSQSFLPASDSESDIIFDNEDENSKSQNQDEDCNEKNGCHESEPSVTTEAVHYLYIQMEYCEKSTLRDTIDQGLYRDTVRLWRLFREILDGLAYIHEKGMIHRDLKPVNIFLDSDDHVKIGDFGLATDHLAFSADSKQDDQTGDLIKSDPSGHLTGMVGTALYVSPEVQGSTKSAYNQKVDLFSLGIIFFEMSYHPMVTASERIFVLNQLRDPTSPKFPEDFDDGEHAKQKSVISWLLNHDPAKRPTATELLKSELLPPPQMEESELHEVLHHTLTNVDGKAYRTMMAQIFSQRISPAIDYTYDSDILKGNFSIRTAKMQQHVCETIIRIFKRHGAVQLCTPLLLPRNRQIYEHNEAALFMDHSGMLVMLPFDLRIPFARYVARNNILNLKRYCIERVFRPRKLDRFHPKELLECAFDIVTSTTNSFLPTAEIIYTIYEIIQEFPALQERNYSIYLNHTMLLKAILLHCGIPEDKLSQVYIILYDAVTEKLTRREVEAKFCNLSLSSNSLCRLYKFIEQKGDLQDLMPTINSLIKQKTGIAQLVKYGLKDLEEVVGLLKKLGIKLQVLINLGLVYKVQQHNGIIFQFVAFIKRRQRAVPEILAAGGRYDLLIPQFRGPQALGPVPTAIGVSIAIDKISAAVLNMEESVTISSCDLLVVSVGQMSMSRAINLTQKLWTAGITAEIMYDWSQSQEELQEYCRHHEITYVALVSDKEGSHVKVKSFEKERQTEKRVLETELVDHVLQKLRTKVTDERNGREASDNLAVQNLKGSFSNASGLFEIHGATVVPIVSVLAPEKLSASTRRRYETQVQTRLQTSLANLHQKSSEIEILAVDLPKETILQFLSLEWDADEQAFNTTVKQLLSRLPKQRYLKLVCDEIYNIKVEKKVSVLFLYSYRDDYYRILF", "experiment": "Inhibition of GCN2 domain2 Lys2 labeling site in human A-375 cells at 0.5 uM by KiNativ Profiling analysis relative to control", "assay_type": "cell-based"}, "[7]": {"biological_target": "Serine/threonine-protein kinase MARK1 (Homo sapiens) (UniProt Q9P0L2)", "sequence (Q9P0L2 whole entry, looked up)": "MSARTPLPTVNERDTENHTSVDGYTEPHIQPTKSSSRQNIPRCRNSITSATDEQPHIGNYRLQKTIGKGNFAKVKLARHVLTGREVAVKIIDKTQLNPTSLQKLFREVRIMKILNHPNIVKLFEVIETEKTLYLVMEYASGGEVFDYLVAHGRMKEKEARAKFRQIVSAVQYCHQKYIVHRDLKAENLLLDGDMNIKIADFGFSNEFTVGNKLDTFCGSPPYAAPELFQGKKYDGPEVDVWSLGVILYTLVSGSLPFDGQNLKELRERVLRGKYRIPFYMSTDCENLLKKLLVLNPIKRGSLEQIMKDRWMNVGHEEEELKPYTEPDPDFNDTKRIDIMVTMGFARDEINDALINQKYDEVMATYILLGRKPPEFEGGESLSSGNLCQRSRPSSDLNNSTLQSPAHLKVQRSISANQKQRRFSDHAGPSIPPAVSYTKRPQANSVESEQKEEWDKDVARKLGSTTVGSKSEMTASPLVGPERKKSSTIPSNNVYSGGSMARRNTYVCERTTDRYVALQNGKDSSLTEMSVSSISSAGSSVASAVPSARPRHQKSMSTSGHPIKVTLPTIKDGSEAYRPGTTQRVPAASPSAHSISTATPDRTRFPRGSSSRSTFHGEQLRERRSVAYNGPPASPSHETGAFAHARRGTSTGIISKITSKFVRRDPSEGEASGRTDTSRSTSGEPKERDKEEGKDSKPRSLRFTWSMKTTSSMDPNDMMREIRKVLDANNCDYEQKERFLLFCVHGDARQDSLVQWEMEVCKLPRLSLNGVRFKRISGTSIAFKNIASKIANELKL", "experiment": "Inhibition of MARK1 Lys2 labeling site in human A-375 cells at 0.05 uM by KiNativ Profiling analysis relative to control", "assay_type": "cell-based"}, "[8]": {"biological_target": "Glycogen synthase kinase-3 beta (Homo sapiens) (UniProt P49841)", "experiment": "Inhibition of GSK3B (unknown origin) at 1 uM by Ambit Kinomescan binding assay relative to control; values are per cent of control"}},
  "note": "Active and inactive are the calls of the source. The calls are words filed in the database; no cut-off is given here.",
  "data": [
    {"compound": "CCN1CCN(Cc2ccc(NC(=O)c3ccc(C)c(Oc4ccnc5[nH]ccc45)c3)cc2C(F)(F)F)CC1", "values": [
      {"measurement": "inhibition", "setting": "[1]", "value": "inactive"},
      {"measurement": "inhibition", "setting": "[2]", "value": 16.1, "unit": "%"},
      {"measurement": "inhibition", "setting": "[3]", "value": 35.4, "unit": "%"},
      {"measurement": "percent of control", "setting": "[4]", "value": 0.55, "unit": "%"}
    ]},
    {"compound": "CNc1cc(Oc2cc(C(=O)Nc3cc(N4CCN(C)CC4)cc(C(F)(F)F)c3)ccc2C)ncn1", "values": [
      {"measurement": "inhibition", "setting": "[5]", "value": -3.1, "unit": "%"}
    ]},
    {"compound": "CCN1CCN(Cc2ccc(NC(=O)c3ccc(C)c(/C=C/c4cnc5[nH]ccc5c4OC)c3)cc2C(F)(F)F)CC1", "values": [
      {"measurement": "inhibition", "setting": "[6]", "value": 44.6, "unit": "%"},
      {"measurement": "inhibition", "setting": "[7]", "value": 17.5, "unit": "%"},
      {"measurement": "residual activity", "setting": "[8]", "value": 100, "unit": "%"}
    ]}
  ]
}
